# Laboratory results reported in US12427187B2, “Glucose-responsive insulin conjugates” (priority 2019, dated 2025).
# Biological target: T1, Human macrophage mannose receptor 1 (MRC1) (Homo sapiens, UniProt P22897)
# T1 sequence (P22897 19-1456): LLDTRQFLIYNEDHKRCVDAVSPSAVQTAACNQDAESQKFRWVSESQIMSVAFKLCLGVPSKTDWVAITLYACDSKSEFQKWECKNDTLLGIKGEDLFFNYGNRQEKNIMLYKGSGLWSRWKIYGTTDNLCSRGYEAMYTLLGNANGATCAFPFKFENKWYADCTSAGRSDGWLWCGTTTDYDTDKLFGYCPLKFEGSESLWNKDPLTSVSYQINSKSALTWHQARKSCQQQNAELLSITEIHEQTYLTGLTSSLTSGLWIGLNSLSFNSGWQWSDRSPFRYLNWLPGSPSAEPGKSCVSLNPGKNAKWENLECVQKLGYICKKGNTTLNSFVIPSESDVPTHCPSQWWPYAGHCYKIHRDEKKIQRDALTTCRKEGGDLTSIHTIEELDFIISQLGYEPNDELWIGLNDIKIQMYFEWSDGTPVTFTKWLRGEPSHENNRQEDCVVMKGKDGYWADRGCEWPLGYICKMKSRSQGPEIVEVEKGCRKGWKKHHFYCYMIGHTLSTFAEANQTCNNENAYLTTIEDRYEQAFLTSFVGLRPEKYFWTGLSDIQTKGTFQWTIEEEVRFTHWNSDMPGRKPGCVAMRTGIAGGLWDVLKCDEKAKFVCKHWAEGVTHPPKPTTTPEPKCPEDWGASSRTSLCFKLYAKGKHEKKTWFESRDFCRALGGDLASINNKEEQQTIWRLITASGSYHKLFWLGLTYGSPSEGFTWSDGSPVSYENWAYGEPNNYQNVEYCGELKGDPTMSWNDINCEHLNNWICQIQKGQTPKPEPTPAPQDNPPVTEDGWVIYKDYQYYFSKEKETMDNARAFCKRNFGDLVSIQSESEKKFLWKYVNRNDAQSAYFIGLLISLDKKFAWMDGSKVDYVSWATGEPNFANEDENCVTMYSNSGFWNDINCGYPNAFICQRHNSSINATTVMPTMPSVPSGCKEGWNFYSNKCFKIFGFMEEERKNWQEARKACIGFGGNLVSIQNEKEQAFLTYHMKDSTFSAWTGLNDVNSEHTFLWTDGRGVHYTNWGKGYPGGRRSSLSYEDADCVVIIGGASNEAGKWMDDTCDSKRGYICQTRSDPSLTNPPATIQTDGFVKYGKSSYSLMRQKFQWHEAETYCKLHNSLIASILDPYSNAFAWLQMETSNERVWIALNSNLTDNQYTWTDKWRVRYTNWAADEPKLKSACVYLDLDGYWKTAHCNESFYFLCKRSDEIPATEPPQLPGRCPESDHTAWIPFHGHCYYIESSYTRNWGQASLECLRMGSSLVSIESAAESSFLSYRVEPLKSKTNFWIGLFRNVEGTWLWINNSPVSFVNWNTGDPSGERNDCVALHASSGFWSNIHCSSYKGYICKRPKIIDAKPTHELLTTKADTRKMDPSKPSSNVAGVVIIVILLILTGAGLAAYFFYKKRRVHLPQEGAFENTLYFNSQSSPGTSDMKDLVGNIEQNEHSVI
# Assay: MRC1 competition binding assay with Eu-mannosylated-BSA
# Details: Method E: 96-well plate; IP = inflection point; read-out: MRC1 Binding IP
row,Structure (SMILES),IC50 [nM]
1,CC(=O)[C@H](CCCCN)NC(=O)CCCCC(=O)N[C@@H](CCC(=O)NCCO[C@H]1O[C@H](CO)[C@@H](O)[C@H](O)[C@@H]1O)C(=O)N[C@@H](CCC(=O)NCCO[C@H]1O[C@H](CO)[C@@H](O)[C@H](O)[C@@H]1O)C(=O)N[C@@H](CCC(=O)NCCO[C@H]1O[C@H](CO)[C@@H](O)[C@H](O)[C@@H]1O)C(=O)NCCO[C@H]1O[C@H](CO)[C@@H](O)[C@H](O)[C@@H]1O [IOC-16],86.7

# Same assay, conditions: Method F: 384-well plate; IP = inflection point; read-out: MRC1 Binding IP
row,Structure (SMILES),IC50 [nM]
1,CC(=O)[C@H](CCCCN)NC(=O)CCCCCNC(=O)[C@H](CCCCNC(=O)[C@H](CCCCNC(=O)[C@H](CCCCNC(=O)[C@H](CCCCNC(=O)CCCCCCNC(=O)CN(CC(=O)NCCO[C@H]1O[C@H](CO)[C@@H](O)[C@H](O)[C@@H]1O)CC(=O)NCCO[C@H]1O[C@H](CO)[C@@H](O)[C@H](O)[C@@H]1O)NC(=O)CN(CC(=O)NCCO[C@H]1O[C@H](CO)[C@@H](O)[C@H](O)[C@@H]1O)CC(=O)NCCO[C@H]1O[C@H](CO)[C@@H](O)[C@H](O)[C@@H]1O)NC(=O)CN(CC(=O)NCCO[C@H]1O[C@H](O)[C@@H](O)[C@H](O)[C@@H]1O)CC(=O)NCCO[C@H]1O[C@H](CO)[C@@H](O)[C@H](O)[C@@H]1O)NC(=O)CN(CC(=O)NCCO[C@H]1O[C@H](CO)[C@@H](O)[C@H](O)[C@@H]1O)CC(=O)NCCO[C@H]1O[C@H](CO)[C@@H](O)[C@H](O)[C@@H]1O)NC(=O)CN(CC(=O)NCCO[C@H]1O[C@H](CO)[C@@H](O)[C@H](O)[C@@H]1O)CC(=O)NCCO[C@H]1O[C@H](CO)[C@@H](O)[C@H](O)[C@@H]1O [IOC-60],86.4
2,CC(=O)[C@H](CCCCN)NC(=O)CCCCC(=O)NCC(=O)N[C@@H](CCC(=O)N[C@@H](CCC(=O)NCCCCCC(=O)N(CCOC1O[C@H](CO)[C@@H](O)[C@H](O)[C@@H]1O)CCO[C@H]1O[C@H](CO)[C@@H](O)[C@H](O)[C@@H]1O)C(=O)NCCCCCC(=O)N(CCOC1O[C@H](CO)[C@@H](O)[C@H](O)[C@@H]1O)CCOC1O[C@H](CO)[C@@H](O)[C@H](O)[C@@H]1O)C(=O)NCCCCCC(=O)NCCO[C@H]1O[C@H](CO[C@H]2O[C@H](CO)[C@@H](O)[C@H](O)[C@@H]2O)[C@@H](O)[C@H](O[C@H]2O[C@H](CO)[C@@H](O)[C@H](O)[C@@H]2O)[C@@H]1O (some centres unmarked) [IOC-32],604
3,CC(=O)[C@H](CCCCN)NC(=O)CCCCCNC(=O)[C@H](CCCCNC(=O)CCCCCNC(=O)CN(CC(=O)NCCO[C@H]1O[C@H](CO)[C@@H](O)[C@H](O)[C@@H]1O)CC(=O)NCCO[C@H]1O[C@H](CO)[C@@H](O)[C@H](O)[C@@H]1O)NC(=O)[C@H](CCCCNC(=O)CCCCCNC(=O)CN(CC(=O)NCCO[C@H]1O[C@H](CO)[C@@H](O)[C@H](O)[C@@H]1O)CC(=O)NCCO[C@H]1O[C@H](CO)[C@@H](O)[C@H](O)[C@@H]1O)NC(=O)CCCCCNC(=O)CN(CC(=O)NCCO[C@H]1O[C@H](CO)[C@@H](O)[C@H](O)[C@@H]1O)CC(=O)NCCO[C@H]1O[C@H](CO)[C@@H](O)[C@H](O)[C@@H]1O [IOC-40],24.7
4,CC(=O)[C@H](CCCCN)NC(=O)CCCCC(=O)NCC(=O)N[C@@H](CCC(=O)N[C@@H](CCC(=O)NCCCCCC(=O)N(CCOC1O[C@H](CO)[C@@H](O)[C@H](O)[C@@H]1O)CCO[C@H]1O[C@H](CO)[C@@H](O)[C@H](O)[C@@H]1O)C(=O)NCCCCCC(=O)N(CCOC1O[C@H](CO)[C@@H](O)[C@H](O)[C@@H]1O)CCOC1O[C@H](CO)[C@@H](O)[C@H](O)[C@@H]1O)C(=O)NCCCCCC(=O)NCCO[C@H]1O[C@H](CO[C@H]2O[C@H](CO)[C@@H](O)[C@H](O)[C@@H]2O)[C@@H](O)[C@H](O[C@H]2O[C@H](CO)[C@@H](O)[C@H](O)[C@@H]2O)[C@@H]1O (some centres unmarked) [IOC-27],20.7
5,CC(=O)[C@H](CCCCN)NC(=O)CCCCCNC(=O)[C@H](CCCCNC(=O)CCCCCNC(=O)CCCCCNC(=O)CN(CC(=O)NCCO[C@H]1O[C@H](CO)[C@@H](O)[C@H](O)[C@@H]1O)CC(=O)NCCO[C@H]1O[C@H](CO)[C@@H](O)[C@H](O)[C@@H]1O)NC(=O)[C@H](CCCCNC(=O)CCCCCNC(=O)CN(CC(=O)NCCO[C@H]1O[C@H](CO)[C@@H](O)[C@H](O)[C@@H]1O)CC(=O)NCCO[C@H]1O[C@H](CO)[C@@H](O)[C@H](O)[C@@H]1O)NC(=O)CCCCCNC(=O)CN(CC(=O)NCCO[C@H]1O[C@H](CO)[C@@H](O)[C@H](O)[C@@H]1O)CC(=O)NCCO[C@H]1O[C@H](CO)[C@@H](O)[C@H](O)[C@@H]1O [IOC-52],49.1

# Next, values leading:
row,IC50 [nM],Structure (SMILES)
1,8.91,CC(=O)[C@H](CCCCN)NC(=O)CCCCCNC(=O)[C@H](CCCCNC(=O)[C@H](CCCCNC(=O)CCCCCNC(=O)CN(CC(=O)NCCO[C@@H]1O[C@@H](C)[C@@H](O)[C@@H](O)[C@@H]1O)CC(=O)NCCO[C@@H]1O[C@@H](C)[C@@H](O)[C@@H](O)[C@@H]1O)NC(=O)CN(CC(=O)NCCO[C@@H]1O[C@@H](C)[C@@H](O)[C@@H](O)[C@@H]1O)CC(=O)NCCO[C@@H]1O[C@@H](C)[C@@H](O)[C@@H](O)[C@@H]1O)NC(=O)CN(CC(=O)NCCO[C@@H]1O[C@@H](C)[C@@H](O)[C@@H](O)[C@@H]1O)CC(=O)NCCO[C@@H]1O[C@@H](C)[C@@H](O)[C@@H](O)[C@@H]1O [IOC-45]
2,9.78,CC(=O)[C@H](CCCCN)NC(=O)CCCCC(=O)NCC(=O)N[C@@H](CCC(=O)N[C@@H](CCC(=O)NCCCCCC(=O)N(CCOC1O[C@H](CO)[C@@H](O)[C@H](O)[C@@H]1O)CCOC1O[C@H](CO)[C@@H](O)[C@H](O)[C@@H]1O)C(=O)NCCCCCC(=O)N(CCOC1O[C@H](CO)[C@@H](O)[C@H](O)[C@@H]1O)CCOC1O[C@H](CO)[C@@H](O)[C@H](O)[C@@H]1O)C(=O)NCCCCCC(=O)NCCO[C@H]1O[C@H](CO[C@H]2O[C@H](CO)[C@@H](O)[C@H](O)[C@@H]2O)[C@@H](O)[C@H](O[C@H]2O[C@H](CO)[C@@H](O)[C@H](O)[C@@H]2O)[C@@H]1O (some centres unmarked) [IOC-38]
3,9.22,CC(=O)[C@H](CCCCN)NC(=O)CCCCCNC(=O)[C@H](CCCCNC(=O)CCCCCNC(=O)CCCCCNC(=O)CN(CC(=O)NCCO[C@H]1O[C@H](CO)[C@@H](O)[C@H](O)[C@@H]1O)CC(=O)NCCO[C@@H]1O[C@@H](C)[C@@H](O)[C@@H](O)[C@@H]1O)NC(=O)[C@H](CCCCNC(=O)CCCCCNC(=O)CN(CC(=O)NCCO[C@H]1O[C@H](CO)[C@@H](O)[C@H](O)[C@@H]1O)CC(=O)NCCO[C@@H]1O[C@@H](C)[C@@H](O)[C@@H](O)[C@@H]1O)NC(=O)CCCCCNC(=O)CN(CC(=O)NCCO[C@H]1O[C@H](CO)[C@@H](O)[C@H](O)[C@@H]1O)CC(=O)NCCO[C@@H]1O[C@@H](C)[C@@H](O)[C@@H](O)[C@@H]1O [IOC-53]
4,18.5,CC(=O)[C@H](CCCCN)NC(=O)CCCCC(=O)NCC(=O)N[C@@H](CCC(=O)N[C@@H](CCC(=O)NCCCCCC(=O)N(CCOC1O[C@H](CO)[C@@H](O)[C@H](O)[C@@H]1O)CCO[C@H]1O[C@H](CO)[C@@H](O)[C@H](O)[C@@H]1O)C(=O)NCCCCCC(=O)N(CCOC1O[C@H](CO)[C@@H](O)[C@H](O)[C@@H]1O)CCOC1O[C@H](CO)[C@@H](O)[C@H](O)[C@@H]1O)C(=O)NCCCCCC(=O)NCCO[C@H]1O[C@H](CO[C@H]2O[C@H](CO)[C@@H](O)[C@H](O)[C@@H]2O)[C@@H](O)[C@H](O[C@H]2O[C@H](CO)[C@@H](O)[C@H](O)[C@@H]2O)[C@@H]1O (some centres unmarked) [IOC-29]
5,7.93,CC(=O)[C@H](CCCCN)NC(=O)CCCCC(=O)NCC(=O)N[C@@H](CCC(=O)N[C@@H](CCC(=O)NCCCCCC(=O)N(CCOC1O[C@H](CO)[C@@H](O)[C@H](O)[C@@H]1O)CCO[C@H]1O[C@H](CO)[C@@H](O)[C@H](O)[C@@H]1O)C(=O)NCCCCCC(=O)N(CCOC1O[C@H](CO)[C@@H](O)[C@H](O)[C@@H]1O)CCOC1O[C@H](CO)[C@@H](O)[C@H](O)[C@@H]1O)C(=O)NCCCCCC(=O)NCCO[C@H]1O[C@H](CO[C@H]2O[C@H](CO)[C@@H](O)[C@H](O)[C@@H]2O)[C@@H](O)[C@H](O[C@H]2O[C@H](CO)[C@@H](O)[C@H](O)[C@@H]2O)[C@@H]1O (some centres unmarked) [IOC-34]
